The experiment has as its system HeLa, HT-29 and MCF-7 human tumor cell lines. The experiment is described as follows: Antiproliferative activity over the three human tumor cell lines (MTT). The class given is cell-based. The settings on record: Homo sapiens, range over the cell lines, Table S1; read-out: Cytotoxicity range (range of antiproliferative IC50 values).
As a reminder, the IC50 is the concentration that gives 50% inhibition. With `COc1cc(C(=O)c2cccc(N(C)C)c2)cc(OC)c1OC` [Compound 1f, (3-(Dimethylamino)phenyl)(3,4,5-trimethoxyphenyl)methanone], the IC50 lay in the range of 180 to 460 nM. In the case of `COc1cc(C(=O)c2ccnc(N3CCCC3)c2)cc(OC)c1OC` [Compound 1h, (2-(Pyrrolidin-1-yl)pyridin-4-yl)(3,4,5-trimethoxyphenyl)methanone] it was 17 to 71 nM. In the case of `C=C(c1ccc(N(C)C)nc1)c1cc(OC)c(OC)c(OC)c1` [Compound 3b, N,N-Dimethyl-5-(1-(3,4,5-trimethoxyphenyl)vinyl)pyridin-2-amine] it was 81 to 277 nM; in that of `COc1cc(C=Cc2ccc(N(C)C)nc2)cc(OC)c1OC` [Compound 8b, N,N-dimethyl-5-(3,4,5-trimethoxystyryl)pyridin-2-amine], 57 to 80 nM.
